Data: US8293768B2, “Organic compounds” (Novartis AG, priority 2006, dated 2012)

SMILES	melting point
Cc1nc(N2CCN(CC3CC3)C2=O)sc1C(=O)NCc1ccc(F)cc1 [Example 9.15, 2-(3-(cyclopropylmethyl)-2-oxoimidazolidin-1-yl)-N-(4-fluorobenzyl)-4-methylthiazole-5-carboxamide]	146 to 147 °C
Cc1cnc(CNC(=O)c2sc(-n3cnn(Cc4ccc(F)cc4)c3=O)nc2C)cn1 [Example 21.15, 2-(1-(4-fluorobenzyl)-5-oxo-1H-1,2,4-triazol-4(5H)-yl)-4-methyl-N-((5-methylpyrazin-2-yl)methyl)thiazole-5-carboxamide]	188 to 189 °C
Cc1csc(N2CCN(Cc3ccc(C(=O)O)cc3)C2=O)n1 [Example 6.23, 4-((3-(4-methylthiazol-2-yl)-2-oxoimidazolidin-1-yl)methyl)benzoic acid]	222 to 224 °C
Cc1ccc(CNC(=O)c2sc(N3CCN(Cc4ccccc4)C3=O)nc2C)o1 [Example 9.10, 2-(3-benzyl-2-oxoimidazolidin-1-yl)-4-methyl-N-((5-methylfuran-2-yl)methyl)thiazole-5-carboxamide]	138 to 139 °C
COC(=O)c1ccc(CN2CCN(c3nc(C)cs3)C2=O)cc1 [Example 5.13, methyl 4-((3-(4-methylthiazol-2-yl)-2-oxoimidazolidin-1-yl)methyl)benzoate]	157 to 158 °C
Cc1csc(NC(=O)c2ccc(CN3CCN(c4nc(C)cs4)C3=O)cc2)n1 [Example 8.10, N-(4-methylthiazol-2-yl)-4-((3-(4-methylthiazol-2-yl)-2-oxoimidazolidin-1-yl)methyl)benzamide]	197 to 198 °C
Cc1nc(-n2ccn(Cc3ccc(F)cc3)c2=O)sc1C(=O)NCc1cccnc1 [Example 17.2, 2-(3-(4-fluorobenzyl)-2-oxo-2,3-dihydro-1H-imidazol-1-yl)-4-methyl-N-(pyridin-3-ylmethyl)thiazole-5-carboxamide]	158 to 159 °C
Cc1nc(N2CCN(Cc3ccc(F)cc3)C2=O)sc1C(=O)N(C)C [Example 32.22, 2-(3-(4-fluorobenzyl)-2-oxoimidazolidin-1-yl)-N,N,4-trimethylthiazole-5-carboxamide]	162 to 164 °C
Cc1nc(N2CCN(Cc3ccc(F)cc3)C2=O)sc1C(=O)NCc1ccccn1 [Example 32.21, 2-(3-(4-fluorobenzyl)-2-oxoimidazolidin-1-yl)-4-methyl-N-(pyridin-2-ylmethyl)thiazole-5-carboxamide]	183 to 185 °C
Cc1nc(N2CCN(Cc3csc4ccc(Cl)cc34)C2=O)sc1C(=O)NCc1cccnc1 [Example 32, 2-(3-((5-chlorobenzo[b]thiophen-3-yl)methyl)-2-oxoimidazolidin-1-yl)-4-methyl-N-(pyridin-3-ylmethyl)thiazole-5-carboxamide]	185 to 187 °C
Cc1cnc(CNC(=O)c2sc(N3CCN(Cc4ccc(C(F)(F)F)cc4)C3=O)nc2C)cn1 [Example 9.33, 4-methyl-N-((5-methylpyrazin-2-yl)methyl)-2-(2-oxo-3-(4-(trifluoromethyl)benzyl)imidazolidin-1-yl)thiazole-5-carboxamide]	172 to 173 °C
Cc1nc(N2CCN(CC3CC3)C2=O)sc1C(=O)NCc1ccccn1 [Example 32.24, 2-(3-(cyclopropylmethyl)-2-oxoimidazolidin-1-yl)-4-methyl-N-(pyridin-2-ylmethyl)thiazole-5-carboxamide]	148 to 151 °C
Cc1nc(N2CCN(Cc3ccc(OC(F)(F)F)cc3)C2=O)sc1C(=O)NCC1CC1 [Example 8.12, N-(cyclopropylmethyl)-4-methyl-2-(2-oxo-3-(4-(trifluoromethoxy)benzyl)imidazolidin-1-yl)thiazole-5-carboxamide]	184 to 186 °C
CCOC(=O)c1sc(N2CCNC2=O)nc1C(F)(F)F [Example 3.2, ethyl 2-(2-oxoimidazolidin-1-yl)-4-(trifluoromethyl)thiazole-5-carboxylate]	185 to 187 °C
Cc1nc(N2CCN(Cc3ccc(F)cc3)C2=O)sc1C(=O)NCc1cccnn1 [Example 32.15, 2-(3-(4-fluorobenzyl)-2-oxoimidazolidin-1-yl)-4-methyl-N-(pyridazin-3-ylmethyl)thiazole-5-carboxamide]	222 to 225 °C
COC(=O)c1cnc(N2CCNC2=O)s1 [Example 3.1, methyl 2-(2-oxoimidazolidin-1-yl)thiazole-5-carboxylate]	205 to 208 °C
CNC(=O)c1ccc(CN2CCN(c3nc(C)c(-c4cc(C)[nH]n4)s3)C2=O)cc1 [Example 40.2, N-methyl-4-((3-(4-methyl-5-(3-methyl-1H-pyrazol-5-yl)thiazol-2-yl)-2-oxoimidazolidin-1-yl)methyl)benzamide]	236 to 238 °C
Cc1cc(-c2sc(N3CCN(Cc4ccc(C(=O)N5CCCCC5)cc4)C3=O)nc2C)n[nH]1 [Example 40, 1-(4-methyl-5-(3-methyl-1H-pyrazol-5-yl)thiazol-2-yl)-3-(4-(piperidine-1-carbonyl)benzyl)imidazolidin-2-one]	182 to 183 °C

SMILES	melting point
Cc1nc(-n2cnn(CCOCc3ccc(F)cc3)c2=O)sc1C(=O)NCc1cccnc1 [Example 49, 2-(1-(2-(4-fluorobenzyloxy)ethyl)-5-oxo-1H-1,2,4-triazol-4(5H)-yl)-4-methyl-N-(pyridin-3-ylmethyl)thiazole-5-carboxamide]	235 to 236 °C
Cc1nc(N2CCN(Cc3ccc(OC(F)(F)F)cc3)C2=O)sc1C(=O)Nc1ccccc1 [Example 9.30, 4-methyl-2-(2-oxo-3-(4-(trifluoromethoxy)benzyl)imidazolidin-1-yl)-N-phenylthiazole-5-carboxamide]	187 to 188 °C
CCOC(=O)c1sc(N2C[C@@H](Cc3ccccc3)NC2=O)nc1C [Example 11, (R)-ethyl 2-(4-benzyl-2-oxoimidazolidin-1-yl)-4-methylthiazole-5-carboxylate]	102 to 103 °C
Cc1nc(N2CCN(Cc3ccc(C(F)(F)F)cc3)C2=O)sc1C(=O)O [Example 6.5, 4-methyl-2-(2-oxo-3-(4-(trifluoromethyl)benzyl)imidazolidin-1-yl)thiazole-5-carboxylic acid]	195 to 197 °C
Cc1nc(N2CCN(CCc3c[nH]c4ccccc34)C2=O)sc1C(=O)NCc1ccccc1 [Example 23.7, 2-(3-(2-(1H-indol-3-yl)ethyl)-2-oxoimidazolidin-1-yl)-N-benzyl-4-methylthiazole-5-carboxamide]	215 to 217 °C
Cc1nc(N2CCN(CCCc3ccccc3)C2=O)sc1C(=O)O [Example 6.12, 4-methyl-2-(2-oxo-3-(3-phenylpropyl)imidazolidin-1-yl)thiazole-5-carboxylic acid]	218 to 221 °C
Cc1nc(N2CCN(Cc3c(C)noc3-c3ccccc3)C2=O)sc1C(=O)NCc1cccnc1 [Example 32.4, 4-methyl-2-(3-((3-methyl-5-phenylisoxazol-4-yl)methyl)-2-oxoimidazolidin-1-yl)-N-(pyridin-3-ylmethyl)thiazole-5-carboxamide]	109 to 111 °C
Cc1nc(N2CCN(Cc3cccc4cccnc34)C2=O)sc1C(=O)NCc1cccnc1 [Example 32.2, 4-methyl-2-(2-oxo-3-(quinolin-8-ylmethyl)imidazolidin-1-yl)-N-(pyridin-3-ylmethyl)thiazole-5-carboxamide]	225 to 228 °C
Cc1nc(N2CCN(Cc3ccccc3)/C2=N\C#N)sc1C(=O)NCc1ccccc1 [Example 27, N-benzyl-2-(3-benzyl-2-(cyanoimino)imidazolidin-1-yl)-4-methylthiazole-5-carboxamide]	226 to 228 °C
Cc1cc(CN2CCN(c3nc(C)c(C(=O)NCc4cccnc4)s3)C2=O)no1 [Example 32.3, 4-methyl-2-(3-((5-methylisoxazol-3-yl)methyl)-2-oxoimidazolidin-1-yl)-N-(pyridin-3-ylmethyl)thiazole-5-carboxamide]	185 to 188 °C
Cc1nc(-n2cnn(CC3CC3)c2=O)sc1C(=O)NCc1cccnc1 [Example 21.4, 2-(1-(cyclopropylmethyl)-5-oxo-1H-1,2,4-triazol-4(5H)-yl)-4-methyl-N-(pyridin-3-ylmethyl)thiazole-5-carboxamide]	116 to 117 °C
Cc1cc(N2CCN(Cc3ccc(F)cc3)C2=O)sc1C(=O)NCc1cccnc1 [Example 15.2, 5-(3-(4-fluorobenzyl)-2-oxoimidazolidin-1-yl)-3-methyl-N-(pyridin-3-ylmethyl)thiophene-2-carboxamide]	119 to 120 °C
Cc1nc(N2CCN(Cc3cccc(C(=O)O)c3)C2=O)sc1C(=O)NCc1ccccc1 [Example 25, 3-((3-(5-(benzylcarbamoyl)-4-methylthiazol-2-yl)-2-oxoimidazolidin-1-yl)methyl)benzoic acid]	120 to 123 °C
Cc1nc(N2CCN(Cc3ccccc3)C2=O)sc1C(=O)NCc1ccc(F)cc1 [Example 9, 2-(3-benzyl-2-oxoimidazolidin-1-yl)-N-(4-fluorobenzyl)-4-methylthiazole-5-carboxamide]	147 to 148 °C
Cc1cc(N2CCN(CC(O)c3ccccc3)C2=O)sc1C(=O)NCc1cccnc1 (stereo not drawn) [Example 57, 5-(3-(2-hydroxy-2-phenylethyl)-2-oxoimidazolidin-1-yl)-3-methyl-N-(pyridin-3-ylmethyl)thiophene-2-carboxamide]	75 °C (dec.)
COC(=O)c1ccccc1CN1CCN(c2nc(C)c(C(=O)NCc3ccccc3)s2)C1=O [Example 23.10, methyl 2-((3-(5-(benzylcarbamoyl)-4-methylthiazol-2-yl)-2-oxoimidazolidin-1-yl)methyl)benzoate]	130 to 133 °C
CNC(=O)c1sc(N2CCN(Cc3ccc(F)cc3)C2=O)nc1C [Example 32.19, 2-(3-(4-fluorobenzyl)-2-oxoimidazolidin-1-yl)-N,4-dimethylthiazole-5-carboxamide]	225 to 227 °C
Cc1nc(N2C(=O)N(CCc3ccc(F)cc3)CC2O)sc1C(=O)NCc1cccnc1 (stereo not drawn) [Example 16.1, 2-(3-(4-fluorophenethyl)-5-hydroxy-2-oxoimidazolidin-1-yl)-4-methyl-N-(pyridin-3-ylmethyl)thiazole-5-carboxamide]	182 to 184 °C
